Measurements published in US10793563B2, “GCN2 inhibitors and uses thereof” (Merck Patent GmbH, priority 2018, dated 2020).

These molecules were tested against GCN2 kinase (Homo sapiens (Human), UniProt Q9P2K8) (assay: GCN2 Enzyme Inhibition Assay (Transcreener ADP2 fluorescence polarization)). Conditions: 280 μM ATP, 200 μM (RS)7 peptide, 4 nM GCN2, 25° C.
GCN2 kinase, sequence (Q9P2K8 whole entry): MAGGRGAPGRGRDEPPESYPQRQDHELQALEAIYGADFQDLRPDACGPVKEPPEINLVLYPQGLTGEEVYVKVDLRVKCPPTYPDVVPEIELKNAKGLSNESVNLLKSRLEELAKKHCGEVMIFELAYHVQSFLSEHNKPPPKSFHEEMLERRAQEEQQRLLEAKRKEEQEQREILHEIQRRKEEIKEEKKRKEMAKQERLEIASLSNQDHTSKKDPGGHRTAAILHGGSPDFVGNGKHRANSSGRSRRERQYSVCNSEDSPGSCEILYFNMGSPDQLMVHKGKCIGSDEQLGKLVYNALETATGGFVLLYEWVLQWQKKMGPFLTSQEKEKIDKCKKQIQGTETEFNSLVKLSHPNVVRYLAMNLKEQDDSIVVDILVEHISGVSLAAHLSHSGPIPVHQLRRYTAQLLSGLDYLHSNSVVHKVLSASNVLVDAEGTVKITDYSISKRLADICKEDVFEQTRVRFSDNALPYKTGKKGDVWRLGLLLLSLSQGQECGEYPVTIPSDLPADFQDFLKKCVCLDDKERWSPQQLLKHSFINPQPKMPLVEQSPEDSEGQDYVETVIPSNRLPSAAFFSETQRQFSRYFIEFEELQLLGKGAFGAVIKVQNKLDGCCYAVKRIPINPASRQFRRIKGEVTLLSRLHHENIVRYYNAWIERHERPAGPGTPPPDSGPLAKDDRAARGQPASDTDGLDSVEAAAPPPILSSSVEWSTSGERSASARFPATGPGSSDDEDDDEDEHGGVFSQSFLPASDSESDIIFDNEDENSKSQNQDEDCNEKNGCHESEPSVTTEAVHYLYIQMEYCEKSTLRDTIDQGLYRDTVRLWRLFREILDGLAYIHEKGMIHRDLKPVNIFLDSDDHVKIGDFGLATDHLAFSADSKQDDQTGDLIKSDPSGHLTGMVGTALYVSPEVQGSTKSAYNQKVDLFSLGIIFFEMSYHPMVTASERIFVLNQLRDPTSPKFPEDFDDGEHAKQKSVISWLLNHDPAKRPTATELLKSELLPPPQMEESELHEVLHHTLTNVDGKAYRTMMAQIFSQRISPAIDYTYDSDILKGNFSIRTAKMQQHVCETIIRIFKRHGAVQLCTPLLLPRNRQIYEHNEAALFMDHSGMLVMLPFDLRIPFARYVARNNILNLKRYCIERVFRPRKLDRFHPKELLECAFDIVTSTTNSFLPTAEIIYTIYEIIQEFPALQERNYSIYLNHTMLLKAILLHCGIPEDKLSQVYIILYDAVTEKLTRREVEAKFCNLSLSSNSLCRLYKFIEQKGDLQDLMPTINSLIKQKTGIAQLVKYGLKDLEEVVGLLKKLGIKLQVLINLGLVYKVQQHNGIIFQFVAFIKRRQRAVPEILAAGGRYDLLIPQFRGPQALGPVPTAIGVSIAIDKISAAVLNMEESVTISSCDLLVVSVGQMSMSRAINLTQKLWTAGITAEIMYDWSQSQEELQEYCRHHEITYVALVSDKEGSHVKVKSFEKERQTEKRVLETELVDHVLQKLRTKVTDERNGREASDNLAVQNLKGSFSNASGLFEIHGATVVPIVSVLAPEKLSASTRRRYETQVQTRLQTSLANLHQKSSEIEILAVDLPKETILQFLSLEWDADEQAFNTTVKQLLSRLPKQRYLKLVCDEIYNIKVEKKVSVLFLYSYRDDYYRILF
Format: biochemical
Procedure: Compounds were screened for their ability to inhibit GCN2 kinase activity using a Transcreener® ADP^2 fluorescence polarization assay that detects ADP levels (BellBrook Labs, WI). Assays were carried out in a buffer consisting of 25 mM Tris-HCl (pH 7.5), 50 mM NaCl, 10 mM MgCl2 and 1 mM DTT. […] Assays were carried out at 25° C. in the presence of a (typical) final concentration of 4 nM GCN2 kinase. An assay buffer containing GCN2 kinase and (RS)7 was prepared. […] The plate was incubated for 10 minutes at 25° C. prior to the addition of 4.7 μL of ATP stock buffer to initiate the enzyme reaction. The reaction was allowed to proceed for 1 hour at 25° C., prior to the addition of 10 μL detection buffer (consisting of appropriate concentrations of ADP^2 antibody and ADP Alexa633 tracer in 1× stop and detect buffer as supplied by BellBrook Labs). […] Percentage inhibition of enzyme activity was then calculated at each compound dose. IC50 and Ki(app) (using known assay and kinetic parameters) values were calculated from percentage inhibition data using a non-linear, tight-binding algorithm. All data analysis was undertaken using the Screener® software package (Genedata, Switzerland).
For `N#CC1(C(=O)N2CCN(c3nccc(-c4cnc5ccc(C(F)(F)F)cn45)n3)C[C@@H]2c2cn[nH]c2)CC1` (stereo in doubt) [I-551, 1-(2-(1H-pyrazol-4-yl)-4-(4-(6-(trifluoromethyl)imidazo[1,2-a]pyridin-3-yl)pyrimidin-2-yl)piperazine-1-carbonyl)cyclopropane-1-carbonitrile], the IC50 was 10 to 100 nM.
`CC(C)(C)OC(=O)N1CC2(C1)CN(c1ccnc(-c3cnc4ccc(C(F)(F)F)cn34)n1)CC(C)(C)O2` [I-292, tert-butyl 6,6-dimethyl-8-(2-(6-(trifluoromethyl)imidazo[1,2-a]pyridin-3-yl)pyrimidin-4-yl)-5-oxa-2,8-diazaspiro[3.5]nonane-2-carboxylate] gave an IC50 of 100 to 1000 nM.
`COCCN1CCN(c2ccnc(-c3cnc4ccc(C(F)(F)F)cn34)n2)CC1C(N)=O` (stereo not shown) [I-258, 1-(2-methoxyethyl)-4-(2-(6-(trifluoromethyl)imidazo[1,2-a]pyridin-3-yl)pyrimidin-4-yl)piperazine-2-carboxamide] gave an IC50 of 10 to 100 nM.
`C[C@H]1[C@@H](C(N)=O)NCCN1c1ccnc(-c2cnc3ccc(C(F)(F)F)cn23)n1` [I-435, (2S,3 S)-3-methyl-4-(2-(6-(trifluoromethyl)imidazo[1,2-a]pyridin-3-yl)pyrimidin-4-yl)piperazine-2-carboxamide] showed an IC50 of under 10 nM.
For `CN(C)C(=O)COCC1CN(c2ccnc(-c3cnc4ccc(C(F)(F)F)cn34)n2)CC(C)(C)O1` (stereo not shown) [I-305, 2-((6,6-dimethyl-4-(2-(6-(trifluoromethyl)imidazo[1,2-a]pyridin-3-yl)pyrimidin-4-yl)morpholin-2-yl)methoxy)-N,N-dimethylacetamide], the IC50 was 100 to 1000 nM.
`C[C@@H]1[C@H](C(N)=O)NCCN1c1ccnc(-c2cnc3ccc(C(F)(F)F)cn23)n1` [I-434, (2R,3R)-3-methyl-4-(2-(6-(trifluoromethyl)imidazo[1,2-a]pyridin-3-yl)pyrimidin-4-yl)piperazine-2-carboxamide] gave an IC50 of 100 to 1000 nM.
With `NC(=O)CC1CCCN(c2ccnc(-c3cnc4ccc(Cl)cn34)n2)C1` (stereo not shown) [I-162, 2-(1-(2-(6-chloroimidazo[1,2-a]pyridin-3-yl)pyrimidin-4-yl)piperidin-3-yl)acetamide] the IC50 was 10 to 100 nM.
For `NC(=O)[C@H]1CN(c2ccnc(-c3cnc4ccc(C(F)(F)F)cn34)n2)CCO1` [I-151, (R)-4-(2-(6-(trifluoromethyl)imidazo[1,2-a]pyridin-3-yl)pyrimidin-4-yl)morpholine-2-carboxamide], the IC50 was 100 to 1000 nM.
With `Cc1oncc1C(=O)N1CCN(c2ccnc(-c3cnc4ccc(C(F)(F)F)cn34)n2)C[C@@H]1c1cn[nH]c1` [I-549, (S)-(2-(1H-pyrazol-4-yl)-4-(2-(6-(trifluoromethyl)imidazo[1,2-a]pyridin-3-yl)pyrimidin-4-yl)piperazin-1-yl)(5-methylisoxazol-4-yl)methanone] the IC50 was 100 to 1000 nM.
`C[C@H]1[C@H](C(N)=O)NCCN1c1ccnc(-c2cnc3cc(F)c(C4CC4)cn23)n1` [I-454, (2R,3 S)-4-(2-(6-cyclopropyl-7-fluoroimidazo[1,2-a]pyridin-3-yl)pyrimidin-4-yl)-3-methylpiperazine-2-carboxamide] gave an IC50 of 10 to 100 nM.
`C[C@H]1[C@H](CNS(C)(=O)=O)NCCN1c1ccnc(-c2cnc3ccc(C(F)(F)F)cn23)n1` [I-471, N-(((2 S,3 S)-3-methyl-4-(2-(6-(trifluoromethyl)imidazo[1,2-a]pyridin-3-yl)pyrimidin-4-yl)piperazin-2-yl)methyl)methanesulfonamide] showed an IC50 of 100 to 1000 nM.
With `O=C1CCC[C@@H](C(=O)N2CCN(c3ccnc(-c4cnc5ccc(C(F)(F)F)cn45)n3)C[C@@H]2c2cn[nH]c2)N1` [I-474, (S)-6-((S)-2-(1H-pyrazol-4-yl)-4-(2-(6-(trifluoromethyl)imidazo[1,2-a]pyridin-3-yl)pyrimidin-4-yl)piperazine-1-carbonyl)piperidin-2-one] the IC50 was 100 to 1000 nM.
For `C[C@@H]1CN(c2ccnc(-c3cnc4ccc(C(F)(F)F)cn34)n2)C[C@H](C)N1S(C)(=O)=O` [I-439, 3-(4-(cis-3,5-dimethyl-4-(methylsulfonyl)piperazin-1-yl)pyrimidin-2-yl)-6-(trifluoromethyl)imidazo[1,2-a]pyridine], the IC50 was 100 to 1000 nM.
Molecule `C[C@H]1C[C@@H](N=S(C)(C)=O)CN(c2ccnc(-c3cnc4ccc(S(=O)(=O)NC5CC5)cn34)n2)C1` [I-319, N-cyclopropyl-3-(4-((3R,5S)-3-((dimethyl(oxo)-λ6-sulfaneylidene)amino)-5-methylpiperidin-1-yl)pyrimidin-2-yl)imidazo[1,2-a]pyridine-6-sulfonamide] has an IC50 of 100 to 1000 nM.
In the case of `NC(=O)C1CC12CCCN(c1ccnc(-c3cnc4ccc(Cl)cn34)n1)C2` (stereo not shown) [I-132, 5-(2-(6-chloroimidazo[1,2-a]pyridin-3-yl)pyrimidin-4-yl)-5-azaspiro[2.5]octane-1-carboxamide], the IC50 is reported as 10 to 100 nM.
`Cc1noc([C@@H]2CN(c3ccnc(-c4cnc5ccc(C(F)F)cn45)n3)C[C@H](C)O2)n1` [I-498, (2S,6S)-4-(2-(6-(difluoromethyl)imidazo[1,2-a]pyridin-3-yl)pyrimidin-4-yl)-2-methyl-6-(3-methyl-1,2,4-oxadiazol-5-yl)morpholine] showed an IC50 of 10 to 100 nM.
Work on `N#CC1(C(=O)N2CCN(c3ccnc(-c4cnc5ccc(C(F)(F)F)cn45)n3)CC2c2cn[nH]c2)CC1` (stereo not shown) [I-432, 1-(2-(1H-pyrazol-4-yl)-4-(2-(6-(trifluoromethyl)imidazo[1,2-a]pyridin-3-yl)pyrimidin-4-yl)piperazine-1-carbonyl)cyclopropane-1-carbonitrile] yielded an IC50 of 10 to 100 nM.
With `CC(=O)NC1CCCN(c2ccnc(-c3cnc4ccc(C(F)(F)F)cn34)n2)C1` (stereo not shown) [I-187, N-(1-(2-(6-(trifluoromethyl)imidazo[1,2-a]pyridin-3-yl)pyrimidin-4-yl)piperidin-3-yl)acetamide] the IC50 was 10 to 100 nM.
With `Clc1ccc2ncc(-c3nccc(N4CCCC5(CNC5)C4)n3)n2c1` [I-299, 6-(2-(6-chloroimidazo[1,2-a]pyridin-3-yl)pyrimidin-4-yl)-2,6-diazaspiro[3.5]nonane] the IC50 was 100 to 1000 nM.
With `C[C@@H]1C[C@H](N=S(C)(C)=O)CN(c2ccnc(-c3cnc4ccc(N5CC(F)C5)cn34)n2)C1` [I-330, (((3 S,5R)-1-(2-(6-(3-fluoroazetidin-1-yl)imidazo[1,2-a]pyridin-3-yl)pyrimidin-4-yl)-5-methylpiperidin-3-yl)imino)dimethyl-λ6-sulfanone] the IC50 was 100 to 1000 nM.
For `FC(F)(F)c1ccc2ncc(-c3nccc(N4CCOC5(CNC5)C4)n3)n2c1` [I-412, 8-(2-(6-(trifluoromethyl)imidazo[1,2-a]pyridin-3-yl)pyrimidin-4-yl)-5-oxa-2,8-diazaspiro[3.5]nonane], the IC50 was 100 to 1000 nM.
Work on `CC1CN(c2ccnc(-c3cnc4ccc(C(F)(F)F)cn34)n2)CC(C)N1C1COC1` (stereo not shown) [I-234, 3-(4-(3,5-dimethyl-4-(oxetan-3-yl)piperazin-1-yl)pyrimidin-2-yl)-6-(trifluoromethyl)imidazo[1,2-a]pyridine] yielded an IC50 of 10 to 100 nM.
`CC(C)(C(N)=O)C1CCCN(c2ccnc(-c3cnc4ccc(Cl)cn34)n2)C1` (stereo not shown) [I-309, 2-(1-(2-(6-chloroimidazo[1,2-a]pyridin-3-yl)pyrimidin-4-yl)piperidin-3-yl)-2-methylpropanamide] gave an IC50 of 100 to 1000 nM.
`FC1(F)CCC(N2CCN(c3ccnc(-c4cnc5ccc(C(F)(F)F)cn45)n3)CC2c2cn[nH]c2)CC1` (stereo not shown) [I-460, 3-(4-(4-(4,4-difluorocyclohexyl)-3-(1H-pyrazol-4-yl)piperazin-1-yl)pyrimidin-2-yl)-6-(trifluoromethyl)imidazo[1,2-a]pyridine] was tested, and the IC50 was 10 to 100 nM.
In the case of `C[C@H]1C[C@@H](N=S(C)(C)=O)CN(c2ccnc(-c3cnc4ccc(S(N)(=O)=O)cn34)n2)C1` [I-328, 3-(4-((3R,5S)-3-((dimethyl(oxo)-λ6-sulfaneylidene)amino)-5-methylpiperidin-1-yl)pyrimidin-2-yl)imidazo[1,2-a]pyridine-6-sulfonamide], the IC50 is reported as 100 to 1000 nM.
`CC(=O)N1CCN(c2ccnc(-c3cnc4ccc(C(F)(F)F)cn34)n2)CC1(C)C` [I-336, 1-(2,2-dimethyl-4-(2-(6-(trifluoromethyl)imidazo[1,2-a]pyridin-3-yl)pyrimidin-4-yl)piperazin-1-yl)ethan-1-one] was tested, and the IC50 was 10 to 100 nM.

Same assay, conditions: Ki(app); 280 μM ATP, 200 μM (RS)7 peptide, 4 nM GCN2, 25° C.
Molecule `Clc1ccc2ncc(-c3nccc(N4CCCC(c5cn[nH]c5)C4)n3)n2c1` (stereo not shown) [I-100, 2-{6-chloroimidazo[1,2-a]pyridin-3-yl}-4-[3-(1H-pyrazol-4-yl)piperidin-1-yl]pyrimidine] has a Ki of under 10 nM.
In the case of `Cc1nnc([C@@H]2CN(c3ccnc(-c4cnc5ccc(C(F)(F)F)cn45)n3)C[C@H](C)O2)o1` (relative stereo) [I-93, cis-2-methyl-6-(5-methyl-1,3,4-oxadiazol-2-yl)-4-{2-[6-(trifluoromethyl)imidazo[1,2-a]pyridin-3-yl]pyrimidin-4-yl}morpholine], the Ki is reported as 10 to 100 nM.
Work on `O=C1CCN(c2ccnc(-c3cnc4ccc(Cl)cn34)n2)CCN1` [I-26, 1-[2-(6-Chloroimidazo[1,2-a]pyridin-3-yl)pyrimidin-4-yl]-1,4-diazepan-5-one] yielded a Ki of 100 to 1000 nM.
Molecule `Cc1noc([C@@H]2CN(c3ccnc(-c4cnc5ccc(C#N)cn45)n3)C[C@H](C)O2)n1` [I-91, 3-{4-[(2S,6S)-2-methyl-6-(3-methyl-1,2,4-oxadiazol-5-yl)morpholin-4-yl]pyrimidin-2-yl}imidazo[1,2-a]pyridine-6-carbonitrile] has a Ki of 10 to 100 nM.
For `O=C1OCCC2CN(c3ccnc(-c4cnc5ccc(Cl)cn45)n3)CCN12` (stereo not shown) [I-98, 2-(2-{6-chloroimidazo[1,2-a]pyridin-3-yl}pyrimidin-4-yl)-octahydropyrazino[1,2-c][1,3]oxazin-6-one], the Ki was 10 to 100 nM.
